Values of other authors, collected in US4556678A (Key Pharmaceuticals, Inc., priority 1982, dated 1985).

[1] = oral formulations currently in use

## CC(C)NCC(O)COc1cccc2ccccc12 (stereo not drawn) [Propranolol, propranolol]
Administration with food
  bioavailability: enhance its bioavailability
[1]
  absorption from the gastrointestinal tract: almost completely absorbed
  liver metabolism: subject to rapid liver metabolism
